{"source": "patent US5985868A", "about": "“Methods and compositions for treating androgen-dependant diseases using optically pure R-(-) casodex” (Sepracor Inc., priority 1998, dated 1999)", "origin": "cited, not measured here", "key": {"[1]": {"tested_on": "prostatic acid phosphatase", "settings": "human volunteers, 10-50 mg p.o. per day"}, "[2]": {"settings": "racemic casodex at 30 or 50 mg"}, "[3]": {"tested_on": "serum testosterone, estradiol and LH", "settings": "observed at all doses (10-50 mg p.o. per day)"}, "[4]": {"settings": "estimated from oral studies"}, "[5]": {"tested_on": "peripheral androgen receptors"}, "[6]": {"settings": "control of morning sickness during pregnancy"}, "[7]": {"settings": "in vivo"}, "beta-adrenergic": {"tested_on": "beta-adrenergic", "settings": "L-form versus D-enantiomer"}, "androgen": {"tested_on": "androgen", "settings": "in vivo"}, "progesterone receptors": {"tested_on": "progesterone receptors", "settings": "at 5 nm"}, "glucocorticoid receptors": {"tested_on": "glucocorticoid receptors", "settings": "at 5 nm"}}}
{"smiles": "CC(O)(CS(=O)(=O)c1ccc(F)cc1)C(=O)Nc1ccc(C#N)c(C(F)(F)F)c1", "note": "(racemic) [racemic casodex, 4'-cyano-3-[(4-fluorophenyl)sulfonyl]-2-hydroxy-2-methyl-3'-(trifluoromethyl)propionanilide]", "values": [{"measurement": "reduction in prostatic acid phosphatase levels", "setting": "[1]", "value": "50 to 60", "unit": "%"}, {"measurement": "patients reporting gynecomastia and breast tenderness", "setting": "[2]", "value": "Over half the patients"}, {"measurement": "patients reporting hot flushes", "setting": "[2]", "value": "about 20%"}, {"measurement": "patients reporting nausea and vomiting, bone pain, confusion, constipation, headache, diarrhea, dyspepsia, fatigue, dizziness or rash", "setting": "[2]", "value": "less than 10%"}, {"measurement": "elevations of serum testosterone, estradiol and LH", "setting": "[3]", "value": "Significant but mild elevations"}, {"measurement": "average half life", "setting": "[4]", "value": "about 8 days"}, {"measurement": "glucocorticoid activity", "setting": "glucocorticoid activity", "value": "no progestational or glucocorticoid activity"}, {"measurement": "agonist component at peripheral androgen receptors", "setting": "[5]", "value": "little if any agonist component"}]}
{"smiles": "O=C1CCC(N2C(=O)c3ccccc3C2=O)C(=O)N1", "note": "[D-enantiomer of thalidomide, thalidomide]", "values": [{"measurement": "sedative effect", "setting": "[6]", "value": "safe and effective sedative"}]}
{"smiles": "O=C1CCC(N2C(=O)c3ccccc3C2=O)C(=O)N1", "note": "[L-enantiomer of thalidomide, thalidomide]", "values": [{"measurement": "teratogenicity", "setting": "[7]", "value": "potent teratogen"}]}
{"smiles": "CC(C)NCC(O)COc1cccc2ccccc12", "note": "[L-form of propranolol, propranolol]", "values": [{"measurement": "potency relative to the D-enantiomer", "setting": "beta-adrenergic", "value": 100, "unit": "times"}]}
{"smiles": "C[C@](O)(CS(=O)(=O)c1ccc(F)cc1)C(=O)Nc1ccc(C#N)c(C(F)(F)F)c1", "note": "[R-(-)-casodex, N-[4-cyano-3-(trifluoromethyl)phenyl]-3-[(4-fluorophenyl)sulfonyl]-2-hydroxy-2-methylpropanamide]", "values": [{"measurement": "ED50 in inhibiting androgen in rats", "setting": "androgen", "value": 0.5, "unit": "mg/kg"}]}
{"smiles": "C[C@]1(O)CC[C@H]2[C@@H]3CCC4=CC(=O)CCC4=C3C=C[C@@]21C", "note": "[[^3 H]-R1881, methyltrienolone]", "values": [{"measurement": "binding to progesterone receptors", "setting": "progesterone receptors", "value": "approximately 5%"}, {"measurement": "binding to glucocorticoid receptors", "setting": "glucocorticoid receptors", "value": "approximately 5%"}]}
